Legend:
Assay in all cases: NCI 60 cell panel SRB screen
[1] = test system: SK-OV-3; format: cell-based; details: Homo sapiens; for activity at 10 µM: SK-OV-3, single dose 10 μM, read-out: percent cell growth promotion
[2] = test system: PC-3; format: cell-based; details: Homo sapiens; for activity at 10 µM: PC-3, single dose 10 μM, read-out: percent cell growth promotion
[3] = test system: NCI-H23; format: cell-based; details: Homo sapiens; for activity at 10 µM: NCI-H23, single dose 10 μM, read-out: percent cell growth promotion
[4] = test system: RPMI-8226; format: cell-based; details: Homo sapiens; for activity at 10 µM: RPMI-8226, single dose 10 μM, read-out: percent cell growth promotion
[5] = test system: UACC-62; format: cell-based; details: for activity at 10 µM: UACC-62, read-out: percent cell growth promotion
[6] = test system: CCRF-CEM; format: cell-based, human; details: for activity at 10 µM: single dose 10 μM, read-out: percent cell growth promotion
[7] = test system: HS 578T; format: cell-based; details: Homo sapiens; for activity at 10 µM: read-out: percent cell growth promotion
[8] = test system: SK-MEL-28; format: cell-based; details: Homo sapiens; for activity at 10 µM: SK-MEL-28, read-out: percent cell growth promotion
[9] = test system: HOP-62; format: cell-based; details: Homo sapiens; for activity at 10 µM: HOP-62, single dose 10 μM, read-out: percent cell growth promotion
[10] = test system: U251; format: cell-based; details: Homo sapiens, U-251; for activity at 10 µM: U251, single dose 10 μM, read-out: percent cell growth promotion
[11] = test system: MDA-MB 231/ATCC; format: cell-based; details: Homo sapiens; for activity at 10 µM: MDA-MB-231, read-out: percent cell growth promotion
[12] = test system: 786-0; format: cell-based; details: Homo sapiens; for activity at 10 µM: 786-0, single dose 10 μM, read-out: percent cell growth promotion
[13] = test system: NCI-H460; format: cell-based; details: Homo sapiens; for activity at 10 µM: NCI-H460, single dose 10 μM, read-out: percent cell growth promotion
[14] = test system: KM12; format: cell-based; details: Homo sapiens; for activity at 10 µM: KM12, single dose 10 μM, read-out: percent cell growth promotion
[15] = test system: ACHN; format: cell-based; details: Homo sapiens; for activity at 10 µM: single dose 10 μM, read-out: percent cell growth promotion
[16] = test system: BT-549; format: cell-based; details: Homo sapiens; for activity at 10 µM: BT-549, read-out: percent cell growth promotion
[17] = test system: MALME-3M; format: cell-based; details: Homo sapiens; for activity at 10 µM: read-out: percent cell growth promotion
[18] = test system: SN12C; format: cell-based; details: Homo sapiens; for activity at 10 µM: single dose 10 μM, read-out: percent cell growth promotion
[19] = test system: SR; format: cell-based; details: Homo sapiens; for activity at 10 µM: single dose 10 μM, read-out: percent cell growth promotion
[20] = test system: SW-620; format: cell-based; details: Homo sapiens; for activity at 10 µM: SW-620, single dose 10 μM, read-out: percent cell growth promotion
[21] = test system: UACC-257; format: cell-based; details: Homo sapiens; for activity at 10 µM: UACC-257, read-out: percent cell growth promotion
[22] = test system: HCT-116; format: cell-based; details: Homo sapiens; for activity at 10 µM: HCT-116, single dose 10 μM, read-out: percent cell growth promotion
[23] = test system: SK-MEL-5; format: cell-based; details: Homo sapiens; for activity at 10 µM: SK-MEL-5, read-out: percent cell growth promotion
[24] = test system: IGROV1; format: cell-based; details: Homo sapiens, IGROV-1; for activity at 10 µM: IGROV1, single dose 10 μM, read-out: percent cell growth promotion
[25] = test system: HL-60(TB); format: cell-based; details: Homo sapiens; for activity at 10 µM: single dose 10 μM, read-out: percent cell growth promotion
[26] = 5 log dose, 48 h, read-out: LC50 (the source's name)

O=C(Nc1ccccc1)Nc1ccc(Oc2nnc(Cl)c3ccccc23)cc1 [Compound 13a, 1–(4-(4-Chlorophthalazin-1-yloxy)phenyl)-3-phenylurea]
GI50 ([1]; SK-OV-3, 5 log dose): 1.46 µM
IC (TGI) ([1]; SK-OV-3, 5 log dose): 5.51 µM
CC50 ([1]; SK-OV-3, 5 log dose, 48 h, read-out: LC50 (the source's name)): 16.6 µM
activity at 10 µM [1]: -0.5%
GI50 ([2]; PC-3, 5 log dose): 3.26 µM
IC (TGI) ([2]; PC-3, 5 log dose): 10.6 µM
CC50 ([2]; PC-3, 5 log dose, 48 h, read-out: LC50 (the source's name)): > 25 µM
activity at 10 µM [2]: 25.9%
GI50 ([3]; NCI-H23, 5 log dose): 3.72 µM
IC (TGI) ([3]; NCI-H23, 5 log dose): 9.44 µM
CC50 ([3]; NCI-H23, 5 log dose, 48 h, read-out: LC50 (the source's name)): 24 µM
activity at 10 µM [3]: 32.7%
GI50 ([4]; RPMI-8226, 5 log dose): 4.45 µM
IC (TGI) ([4]; RPMI-8226, 5 log dose): 24.3 µM
CC50 ([4]; RPMI-8226, 5 log dose, 48 h, read-out: LC50 (the source's name)): > 25 µM
activity at 10 µM [4]: 35.1%
GI50 ([5]; Homo sapiens, UACC-62): 6.84 µM
activity at 10 µM ([5]; Homo sapiens): 41.3%
CC50 ([5]; Homo sapiens, UACC-62, 5 log dose, 48 h, read-out: LC50 (the source's name)): > 25 µM
TGI ([5]; UACC-62, 5 log dose): > 25 µM
TGI ([6]; 5 log dose): > 25 µM
GI50 ([6]; Homo sapiens, 5 log dose): 4.44 µM
CC50 ([6]; Homo sapiens, 5 log dose, 48 h, read-out: LC50 (the source's name)): > 25 µM
activity at 10 µM ([6]; Homo sapiens): 47.6%
GI50 ([7]; Hs-578T): 2.12 µM
IC (TGI) ([7]; Hs-578T, read-out: TGI): 10.4 µM
activity at 10 µM ([7]; Hs-578T): 1.19%
CC50 ([7]; HS 578T, 5 log dose, 48 h, read-out: LC50 (the source's name)): > 25 µM
GI50 ([8]; SK-MEL-28): 3.57 µM
IC (TGI) ([8]; SK-MEL-28, read-out: TGI): 12.7 µM
activity at 10 µM [8]: 44.2%
CC50 ([8]; SK-MEL-28, 5 log dose, 48 h, read-out: LC50 (the source's name)): > 25 µM
GI50 ([9]; HOP-62, 5 log dose): 2.52 µM
IC (TGI) ([9]; HOP-62, 5 log dose): 65.4 µM
CC50 ([9]; HOP-62, 5 log dose, 48 h, read-out: LC50 (the source's name)): 17 µM
activity at 10 µM [9]: -43.4%
GI50 ([10]; U251, 5 log dose): 2.14 µM
IC (TGI) ([10]; U251, 5 log dose): 5.2 µM
CC50 ([10]; U251, 5 log dose, 48 h, read-out: LC50 (the source's name)): 11.4 µM
activity at 10 µM [10]: 4.84%
GI50 ([11]; MDA-MB-231): 4.76 µM
IC (TGI) ([11]; MDA-MB-231, read-out: TGI): 12.3 µM
activity at 10 µM [11]: 32.1%
CC50 ([11]; MDA-MB-231, MDA-MDA 231/ATCC, 5 log dose, 48 h, read-out: LC50 (the source's name)): > 25 µM
GI50 ([12]; 786-0, 5 log dose): 3.6 µM
IC (TGI) ([12]; 786-0, 5 log dose): 8.18 µM
CC50 ([12]; 786-0, 5 log dose, 48 h, read-out: LC50 (the source's name)): 18.6 µM
activity at 10 µM [12]: 38.2%
GI50 ([13]; NCI-H460, 5 log dose): 2.67 µM
IC (TGI) ([13]; NCI-H460, 5 log dose): 8.65 µM
LC50 (concentration causing 50% cell kill) ([13]; NCI-H460, 5 log dose, 48 h): > 25 µM
activity at 10 µM [13]: 25.2%
GI50 ([14]; KM12, 5 log dose): 5.51 µM
IC (TGI) ([14]; KM12, 5 log dose): > 25 µM
CC50 ([14]; KM12, 5 log dose, 48 h, read-out: LC50 (the source's name)): > 25 µM
activity at 10 µM [14]: 43.6%
GI50 ([15]; 5 log dose): 3.47 µM
IC (TGI) ([15]; 5 log dose): 18.7 µM
CC50 [15, 26]: > 25 µM
activity at 10 µM [15]: 33.9%
GI50 ([16]; BT-549): 3.06 µM
IC (TGI) ([16]; BT-549, read-out: TGI): 10.8 µM
activity at 10 µM [16]: 47.7%
CC50 ([16]; BT-549, 5 log dose, 48 h, read-out: LC50 (the source's name)): > 25 µM
GI50 ([17]; Malme-3M): 1.62 µM
IC (TGI) ([17]; Malme-3M, read-out: TGI): 5.93 µM
activity at 10 µM ([17]; Malme-3M): -29.6%
CC50 ([17]; MALME-3M, 5 log dose, 48 h, read-out: LC50 (the source's name)): 16 µM
GI50 ([18]; 5 log dose): 6.72 µM
IC (TGI) ([18]; 5 log dose): > 25 µM
CC50 [18, 26]: > 25 µM
activity at 10 µM [18]: 53.7%
GI50 ([19]; 5 log dose): 1.93 µM
IC (TGI) ([19]; 5 log dose): 8.26 µM
CC50 [19, 26]: > 25 µM
activity at 10 µM [19]: 18%
GI50 ([20]; SW-620, 5 log dose): 8.41 µM
IC (TGI) ([20]; SW-620, 5 log dose): > 25 µM
CC50 ([20]; SW-620, 5 log dose, 48 h, read-out: LC50 (the source's name)): > 25 µM
activity at 10 µM [20]: 73.4%
GI50 ([21]; UACC-257): 3.96 µM
IC (TGI) ([21]; UACC-257, read-out: TGI): > 25 µM
activity at 10 µM [21]: 22%
CC50 ([21]; UACC-257, 5 log dose, 48 h, read-out: LC50 (the source's name)): > 25 µM
GI50 ([22]; HCT-116, 5 log dose): 3.06 µM
IC (TGI) ([22]; HCT-116, 5 log dose): 9.77 µM
LC50 (lethal concentration 50%) ([22]; HCT-116, 5 log dose, 48 h): > 25 µM
activity at 10 µM [22]: 10.6%
GI50 ([23]; SK-MEL-5): 4.56 µM
IC (TGI) ([23]; SK-MEL-5, read-out: TGI): 18.6 µM
activity at 10 µM [23]: 32.9%
CC50 ([23]; SK-MEL-5, 5 log dose, 48 h, read-out: LC50 (the source's name)): > 25 µM
GI50 ([24]; IGROV1, 5 log dose): 3.32 µM
IC (TGI) ([24]; IGROV1, 5 log dose): 7.92 µM
CC50 ([24]; IGROV1, 5 log dose, 48 h, read-out: LC50 (the source's name)): 18.9 µM
activity at 10 µM [24]: 37.2%
GI50 ([25]; 5 log dose): 2.7 µM
IC (TGI) ([25]; 5 log dose): > 25 µM
CC50 [25, 26]: > 25 µM
activity at 10 µM [25]: 12.1%

O=C(Nc1ccc(Cl)cc1)Nc1ccc(Oc2nnc(Cl)c3ccccc23)cc1 [Compound 13b, 1–(4-Chlorophenyl)-3–(4-(4-chlorophthalazin-1-yloxy)phenyl)urea]
activity at 10 µM [1]: 88.6%
activity at 10 µM [2]: 67.8%
activity at 10 µM [3]: 89%
activity at 10 µM [4]: 87.7%
activity at 10 µM ([5]; Homo sapiens): 75.7%
activity at 10 µM ([6]; Homo sapiens): 66%
activity at 10 µM ([7]; Hs-578T): 97.9%
activity at 10 µM [8]: 106%
activity at 10 µM [9]: 93.3%
activity at 10 µM [10]: 86.7%
activity at 10 µM [11]: 67.5%
activity at 10 µM [12]: 114%
activity at 10 µM [13]: 98.1%
activity at 10 µM [14]: 84.5%
activity at 10 µM [15]: 80.7%
activity at 10 µM [16]: 96.8%
activity at 10 µM ([17]; Malme-3M): 92.3%
activity at 10 µM [18]: 91.4%
activity at 10 µM [19]: 82.8%
activity at 10 µM [20]: 106%
activity at 10 µM [21]: 89.9%
activity at 10 µM [22]: 97.8%
activity at 10 µM [23]: 95.5%
activity at 10 µM [24]: 79.2%
activity at 10 µM [25]: 67.3%

From article PMC6691788, “Design and synthesis of phthalazine-based compounds as potent anticancer agents with potential antiangiogenic activity via VEGFR-2 inhibition” (Journal of Enzyme Inhibition and Medicinal Chemistry, 2019)
